# Measurements from patent publication US9737512B2, “Methods and compositions for treating chronic pain” (THE BOARD OF REGENTS OF THE UNIVERSITY OF TEXAS SYSTEM, priority 2015, dated 2017).
# Assays:
# [1] = test system: SNI-induced mechanical allodynia; experiment: Spared nerve injury (SNI)-induced mechanical allodynia, von Frey; format: in vivo, mice
# Method: FIG. 3. Effect of ESI-09 on Spared nerve injury (SNI)-induced mechanical allodynia. Spared nerve injury was performed on WT mice and mice were treated daily with ESI-09 (50 mg/kg) or vehicle by oral gavage for 6 days starting on the 3rd day after SNI. Mechanical allodynia was monitored in (A) ipsi- and (B) contralateral paw using von Frey hairs and the up and down method at 24 hours after ESI-treatment (n=7 per group). Data are expressed as 50% paw withdrawal thresholds calculated as described in the methods section and represent mean±SEM. n=7/group. *p<0.05, **p<0.01 vs. vehicle group.
# It has been shown that EPAC1−/− mice are protected against neuropathic pain in a model of nerve injury. The effect of ESI-09 in the spared nerve injury (SNI) model of chronic neuropathic pain was examined. […] As expected, mice treated with vehicle developed unilateral mechanical allodynia ([…]). […] The beneficial effect of ESI-09 was maintained for 48 hours after the last dose.
# [2] = test system: CFA-induced heat hyperalgesia; experiment: CFA-induced heat hyperalgesia, Hargreaves test; format: in vivo, mice
# Method: FIG. 2. Effect of ESI-09 on CFA-induced heat hyperalgesia. (A) Mice (n=4/group) received 5 μl CFA intraplantarly in the hind paws and were treated with vehicle or ESI-09 20 mg/kg (n=4) daily by oral gavage for 6 days starting after CFA injection. Heat hyperalgesia was determined using the Hargreaves test and is expressed as heat-withdrawal latency in seconds. (B) CFA-induced heat hyperalgesia in WT and Epac1−/− mice. (C) Heat sensitivity of saline treated mice with 20 mg/kg ESI-09. Data represent mean±SEM (n=4 per group).
# Intraplantar administration of CFA also induces significant heat hyperalgesia (FIG. 2A). However, no effect of ESI-09 (20 mg/kg) on heat hyperalgesia was detected (FIG. 2A). Consistently, CFA-induced heat hyperalgesia was not different between WT and Epac1−/− mice.
# [3] = test system: pancreatic cell lines; settings: cited from earlier work
# [4] = test system: CFA-induced mechanical allodynia; experiment: CFA-induced mechanical allodynia, von Frey test; format: in vivo, mice
# Method: FIG. 1. Effect of ESI-09 in CFA-induced inflammatory mechanical allodynia. (A) Mice (n=4/group) received 5 μl CFA intraplantarly in the hind paws and were treated with vehicle or ESI-09 20 mg/kg (n=4) daily by oral gavage for 6 days starting immediately after CFA injection. Mechanical allodynia was quantified with von Frey Hairs using the up and down method at 24 hours after ESI treatment. (B) CFA-induced mechanical allodynia in WT, heterozygous, and homozygous Epac1-knockout mice. The sensitivity to mechanical stimulation was followed over time in wild-type (WT, n=3), Epac1^+/− (HE, n=6) and Epac1^−/− (HO, n=5) mice after intraplantar injection of 5 μl CFA. […] (D) Dose-response curve for the effect of ESI-09 (5, 20, or 50 mg/kg). Treatment was started on the 3rd day after CFA administration (n=4/group) (E) Mechanical allodynia was measured in WT mice with 6 days treatments of ESI-09 20 (n=3) and 50 mg/kg (n=4) to control for a potential effect on baseline mechanical sensitivity. Data are expressed as 50% withdrawal threshold in grams calculated as described in the methods section and represent mean±SEM. […] In FIG. 1B, *p<0.05, ** p<0.01 for WT versus HO, #p<0.05, ##P<0.01 for WT versus HE, +p<0.05, ++p<0.01 for HE versus HO. In FIG. 1D, **p<0.01 and ##p<0.01 are ESI-09 50 mg/kg and ESI-09 20 mg/kg compared to the Vehicle treated mice.
# To determine whether the Epac inhibitor ESI-09 can be used to treat inflammatory pain, the CFA model was used. CFA was administered intraplantarly and mice were treated with ESI-09 20 mg/kg daily by oral gavage for 6 days starting immediately after injection of CFA. Mechanical allodynia was examined using the von Frey test.
# ESI-09 20 mg/kg was administered orally three days after CFA. […] The effect of ESI-09 was dose-dependent (FIG. 1D). […] The beneficial effect of ESI-09 was detectable until at least 24 hours after the last dose. No effect of daily oral administration of 50 mg/kg ESI-09 on mechanical sensitivity in saline treated control mice was observed ([…]).
# [5] = test system: pancreatic cancer cell lines; settings: cited from earlier work
# [6] = test system: rickettsioses; settings: daily 10 mg/kg IP or 50 mg/kg oral gavage, mice; cited from earlier work
# [7] = test system: paclitaxel-induced mechanical allodynia; experiment: Paclitaxel (chemotherapy)-induced mechanical allodynia, von Frey; format: in vivo, mice
# Method: FIG. 4. Effect of ESI-09 on chemotherapy-induced mechanical allodynia. Mice (n=5/group) were treated with paclitaxel (10 mg/kg, Monday, Wednesday and Friday) for two weeks. ESI-09 (20 mg/kg) or vehicle was given by oral gavage for 6 days starting on the first day (A) or 10 days (B) after completion of paclitaxel treatment. The sensitivity to mechanical stimulation was determined in wild-type (n=5) and Epac1−/− (n=4) in the same paclitaxel model (C). Mechanical allodynia was monitored by von Frey hair using the up and down method. Data are expressed as means±SEM. *p<0.05, ** p<0.01.
# Chemotherapy-induced peripheral neuropathy is a frequent side effect of cancer treatment, and currently there are no FDA-approved drugs to treat or prevent chemotherapy-induced neuropathy. The model of paclitaxel-induced mechanical allodynia to investigate the potential effect of ESI-09 on chemotherapy-induced neuropathy. Mice were treated with three doses (10 mg/kg/dose) of paclitaxel per week for 2 weeks. Administration of ESI-09 was started on the first day after completion of paclitaxel treatment when there was clear allodynia present. Mice were treated daily with ESI-09 (20 mg/kg) or vehicle by oral gavage for 6 days. […] The beneficial effect of treatment was detectable until 72 hours after the last dose of ESI-09. In a second set of experiments, ESI-09 treatment was delayed until 10 days after the completion of paclitaxel treatment.
# [8] = test system: ovalbumin-induced oral tolerance; settings: daily 10 mg/kg IP or 50 mg/kg oral gavage; cited from earlier work
# [9] = test system: PKA; settings: at 25 μM; cited from earlier work
# [10] = target: T1, EPAC2 (Mus musculus, UniProt Q9EQZ6); settings: cited from earlier work
# T1 sequence (Q9EQZ6 1-1011): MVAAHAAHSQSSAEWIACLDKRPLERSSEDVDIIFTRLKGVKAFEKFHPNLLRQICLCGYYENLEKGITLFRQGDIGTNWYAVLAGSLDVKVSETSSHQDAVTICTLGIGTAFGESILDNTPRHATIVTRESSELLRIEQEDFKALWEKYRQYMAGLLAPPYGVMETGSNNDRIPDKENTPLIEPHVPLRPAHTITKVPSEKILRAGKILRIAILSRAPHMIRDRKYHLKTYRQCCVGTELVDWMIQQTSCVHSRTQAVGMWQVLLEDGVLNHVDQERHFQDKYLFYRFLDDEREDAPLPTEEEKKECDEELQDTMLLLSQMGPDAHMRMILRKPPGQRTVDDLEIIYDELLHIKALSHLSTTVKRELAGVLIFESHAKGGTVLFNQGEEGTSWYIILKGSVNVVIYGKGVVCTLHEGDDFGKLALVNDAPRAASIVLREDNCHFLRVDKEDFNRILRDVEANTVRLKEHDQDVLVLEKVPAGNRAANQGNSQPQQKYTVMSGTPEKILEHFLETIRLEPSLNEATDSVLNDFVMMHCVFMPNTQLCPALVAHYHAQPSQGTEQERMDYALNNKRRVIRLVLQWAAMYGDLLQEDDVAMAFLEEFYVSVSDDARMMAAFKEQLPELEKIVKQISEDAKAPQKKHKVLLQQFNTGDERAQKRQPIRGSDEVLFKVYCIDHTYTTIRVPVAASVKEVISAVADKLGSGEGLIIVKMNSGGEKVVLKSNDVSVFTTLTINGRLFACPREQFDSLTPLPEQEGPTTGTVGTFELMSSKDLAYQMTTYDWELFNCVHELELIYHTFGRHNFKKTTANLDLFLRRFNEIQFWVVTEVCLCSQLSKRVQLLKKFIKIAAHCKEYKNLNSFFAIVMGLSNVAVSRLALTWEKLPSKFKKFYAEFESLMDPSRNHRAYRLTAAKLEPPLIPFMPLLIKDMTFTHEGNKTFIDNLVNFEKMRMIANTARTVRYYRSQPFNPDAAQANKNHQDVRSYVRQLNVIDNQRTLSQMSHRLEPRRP
# [11] = 50 mg/kg oral gavage daily 6 days, starting 3 days after SNI
smiles,measurement,setting,value
"CC(C)(C)c1cc(C(=O)/C(C#N)=N/Nc2cccc(Cl)c2)no1 [ESI-09, 3-(5-tert-Butyl-isoxazol-3-yl)-2-[(3-chlorophenyl)-hydrazono]-3-oxo-propionitrile]","SNI-induced mechanical allodynia, ipsilateral paw",[1]; [11],almost completely reversed
same,"normal mechanical sensitivity, contralateral paw",[1]; [11],without affecting
same,time beneficial effect maintained after the last dose,"[1]; SNI model, 50 mg/kg",48 h
same,CFA-induced heat hyperalgesia,[2]; 20 mg/kg daily oral gavage,no effect
same,heat sensitivity of naïve animals,[2]; naïve animals,did not affect
same,insulin secretion,[3],blocks
same,phosphorylation of Akt,[3],blocks
same,CFA-induced mechanical allodynia,"[4]; 5 mg/kg (lowest dose), started 3rd day after CFA",did not observe an effect
same,CFA-induced mechanical allodynia,"[4]; 20 mg/kg daily oral gavage 6 days, starting immediately after CFA",strongly inhibited
same,time inhibition is maintained after administration,"[4]; 20 mg/kg oral, started three days after CFA",at least 24 h
same,inhibition of CFA-induced mechanical allodynia at 2 hours,"[4]; 20 mg/kg oral, started three days after CFA, 2 hours after administration",Partial inhibition
same,inhibition of CFA-induced mechanical allodynia at 6 hours,"[4]; 20 mg/kg oral, started three days after CFA, 6 hours after administration",fully developed
same,CFA-induced mechanical allodynia,"[4]; 20 mg/kg, started 3rd day after CFA",significantly reduced
same,mechanical sensitivity in saline treated control mice,[4]; 50 mg/kg daily oral,No effect
same,CFA-induced mechanical allodynia,"[4]; 50 mg/kg, started 3rd day after CFA",significantly reduced
same,dose dependence of effect on CFA-induced mechanical allodynia,"[4]; 5, 20 or 50 mg/kg, started 3rd day after CFA",dose-dependent
same,time beneficial effect detectable after the last dose,[4]; CFA model,at least 24 hours
same,mechanical sensitivity of control mice,[4]; ESI-09 given to control mice (no CFA),did not have any effect
same,migration of pancreatic cancer cell lines,[5],inhibits
same,protection from lethal rickettsioses (recapitulates EPAC1 knockout phenotype),[6],protecting mice from lethal rickettsioses
same,paclitaxel-induced mechanical allodynia,"[7]; 20 mg/kg oral gavage daily 6 days, started first day after completion of paclitaxel",almost completely rescued
same,time beneficial effect detectable after the last dose,"[7]; paclitaxel model, 20 mg/kg",72 h
same,"paclitaxel-induced mechanical allodynia, later phase",[7]; treatment delayed until 10 days after completion of paclitaxel,significantly inhibited
same,ovalbumin-induced oral tolerance (recapitulates EPAC1 knockout phenotype),[8],compromising ovalbumin-induced oral tolerance
same,activity against PKA,[9],no activity
same,IC50,[10],1400 nM
